In US20210085640A1, “ACYLATED CATECHIN POLYPHENOLS AND METHODS OF THEIR USE FOR THE TREATMENT OF CANCER” (Flagship Pioneering Innovations V, Inc., priority 2018, published 2021):

Columns and labels:
Assay type in all cases: cell-based
A-431 skin cancer cells = assay: Cancer cell survival (CellTiter-Glo), A-431; set-up: Cell survival at given concentration: unit not given here; details: A-431 cells, 72 h
Method: (§1) The cells were prepared as follows. Cells were harvested during logarithmic growth, counted, and adjusted to 4.44×10^4 cells/mL with culture media. 90 μL of suspended cells were added to wells of 96-well plates for a final cell count of 4×10^3 cells/well. The plates were incubated overnight at 37 C with 5% CO2 overnight.
(§2) The test compounds were assayed as follows. Compound solutions were mixed at 10× final concentrations in cell media: 1 μM-10 mM (fatty acids) or 100 nM-1 mM (all other compounds). […] of solution was added to each well of cells in triplicate for each concentration. Well plates were incubated for 72 h at 37 C with 5% CO2 and then assayed with CellTiter-Glo by adding 50 μL of CTG solution to each well. Cells were lysed by shaking on an orbital shaker for 5 min. Plates were incubated at room temperature for 20 min and then each well's luminescence was measured. The surviving percentage of cells was determined as:
(§3) Survival %=(LumTest article−LumMedium control)/(LumNone treated−LumMedium control)[…]
(§4) Cytotoxicity was assessed at nine concentration levels for each compound and the 50% inhibition concentration (IC50) determined for each compound.

T24 bladder cancer cells = assay: Cancer cell survival (CellTiter-Glo), T24; details: 72 h
Method: as §1, §2, §3
Efficacy was assessed at nine concentration levels for each compound and the 50% inhibition concentration (IC50) determined for each compound.

A549 lung cancer cells = assay: Cancer cell survival (CellTiter-Glo), A549; details: 72 h
Method: as §1, §2, §3, §4

AGS stomach cancer cells = assay: Cancer cell survival (CellTiter-Glo), AGS; set-up: Cell survival at given concentration: unit not given here
Method: as §1, §2, §3, §4

MCF7 breast cancer cells = assay: Cancer cell survival (CellTiter-Glo), MCF7; details: 72 h
Method: as §1, §2, §3, §4

[1] = system: HCT 116 colorectal cancer cells; assay: Cancer cell survival (CellTiter-Glo), HCT 116; details: HCT 116 cells, 72 h
Method: as §1, §2, §3, §4

[2] = system: Daudi lymphoma cancer cells; assay: Cancer cell survival (CellTiter-Glo), Daudi; details: 72 h
Method: as §1, §2, §3
Activity was assessed at nine concentration levels for each compound and the 50% inhibition concentration (IC50) determined for each compound.

[3] = system: PC-3 prostate cancer cells; assay: Cancer cell survival (CellTiter-Glo), PC-3; details: PC-3 cells, 72 h
Method: as §1, §2, §3, §4

CCCCC(=O)O [valerate]
Cell survival at given concentration (A-431 skin cancer cells; 1 μM, Table 9.2): 1.01
Cell survival at given concentration (A-431 skin cancer cells; 3 μM, Table 9.2): 1.01
Cell survival at given concentration (A-431 skin cancer cells; 10 μM, Table 9.2): 1.02
Cell survival at given concentration (A-431 skin cancer cells; 32 μM, Table 9.2): 1.02
Cell survival at given concentration (A-431 skin cancer cells; 100 μM, Table 9.2): 1.02
Cell survival at given concentration (A-431 skin cancer cells; 317 μM): 1.03
Cell survival at given concentration (A-431 skin cancer cells; 1 mM): 0.98
Cell survival at given concentration (A-431 skin cancer cells; 3 mM): 0.89
Cell survival at given concentration (A-431 skin cancer cells; 10 mM): 0.71
Cell survival at given concentration (T24 bladder cancer cells; 1 μM, Table 3.2): 1.00
Cell survival at given concentration (T24 bladder cancer cells; 3 μM, Table 3.2): 1.01
Cell survival at given concentration (T24 bladder cancer cells; 10 μM, Table 3.2): 1.01
Cell survival at given concentration (T24 bladder cancer cells; 32 μM, Table 3.2): 0.98
Cell survival at given concentration (T24 bladder cancer cells; 100 μM, Table 3.2): 0.98
Cell survival at given concentration (T24 bladder cancer cells; 317 μM): 0.92
Cell survival at given concentration (T24 bladder cancer cells; 1 mM): 0.89
Cell survival at given concentration (T24 bladder cancer cells; 3 mM): 0.79
Cell survival at given concentration (T24 bladder cancer cells; 10 mM): 0.60
IC50 (T24 bladder cancer cells; Table 3.2, read-out: IC50): > 10 mM
Cell survival at given concentration (A549 lung cancer cells; 1 μM, Table 7.2): 0.98
Cell survival at given concentration (A549 lung cancer cells; 3 μM, Table 7.2): 1.00
Cell survival at given concentration (A549 lung cancer cells; 10 μM, Table 7.2): 1.01
Cell survival at given concentration (A549 lung cancer cells; 32 μM, Table 7.2): 0.97
Cell survival at given concentration (A549 lung cancer cells; 100 μM, Table 7.2): 1.04
Cell survival at given concentration (A549 lung cancer cells; 317 μM): 1.02
Cell survival at given concentration (A549 lung cancer cells; 1 mM): 0.98
Cell survival at given concentration (A549 lung cancer cells; 3 mM): 0.87
Cell survival at given concentration (A549 lung cancer cells; 10 mM): 0.62
IC50 (A549 lung cancer cells; Table 7.2): > 10 mM
Cell survival at given concentration (AGS stomach cancer cells; 1 μM, Table 10.2): 1.03
Cell survival at given concentration (AGS stomach cancer cells; 3 μM, Table 10.2): 1.03
Cell survival at given concentration (AGS stomach cancer cells; 10 μM, Table 10.2): 1.04
Cell survival at given concentration (AGS stomach cancer cells; 32 μM, Table 10.2): 1.03
Cell survival at given concentration (AGS stomach cancer cells; 100 μM, Table 10.2): 1.05
Cell survival at given concentration (AGS stomach cancer cells; 317 μM): 1.06
Cell survival at given concentration (AGS stomach cancer cells; 1 mM): 1.06
Cell survival at given concentration (AGS stomach cancer cells; 3 mM): 0.97
Cell survival at given concentration (AGS stomach cancer cells; 10 mM): 0.63
Cell survival at given concentration (MCF7 breast cancer cells; 1 μM, Table 5.2): 1.00
Cell survival at given concentration (MCF7 breast cancer cells; 3 μM, Table 5.2): 1.02
Cell survival at given concentration (MCF7 breast cancer cells; 10 μM, Table 5.2): 1.01
Cell survival at given concentration (MCF7 breast cancer cells; 32 μM, Table 5.2): 0.97
Cell survival at given concentration (MCF7 breast cancer cells; 100 μM, Table 5.2): 1.00
Cell survival at given concentration (MCF7 breast cancer cells; 317 μM): 0.96
Cell survival at given concentration (MCF7 breast cancer cells; 1 mM): 0.94
Cell survival at given concentration (MCF7 breast cancer cells; 3 mM): 0.76
Cell survival at given concentration (MCF7 breast cancer cells; 10 mM): 0.50
IC50 (MCF7 breast cancer cells; Table 5.2): > 10 mM
Cell survival at given concentration ([1]; 1 μM, Table 6.2): 0.99
Cell survival at given concentration ([1]; 3 μM, Table 6.2): 0.99
Cell survival at given concentration ([1]; 10 μM, Table 6.2): 1.04
Cell survival at given concentration ([1]; 32 μM, Table 6.2): 1.00
Cell survival at given concentration ([1]; 100 μM, Table 6.2): 1.01
Cell survival at given concentration ([1]; 317 μM): 0.99
Cell survival at given concentration ([1]; 1 mM): 0.90
Cell survival at given concentration ([1]; 3 mM): 0.60
Cell survival at given concentration ([1]; 10 mM): 0.17
IC50 ([1]; Table 6.2): 4.07 mM
Cell survival at given concentration ([2]; 1 μM, Table 4.2): 0.99
Cell survival at given concentration ([2]; 3 μM, Table 4.2): 0.98
Cell survival at given concentration ([2]; 10 μM, Table 4.2): 0.98
Cell survival at given concentration ([2]; 32 μM, Table 4.2): 1.01
Cell survival at given concentration ([2]; 100 μM, Table 4.2): 0.95
Cell survival at given concentration ([2]; 317 μM): 0.91
Cell survival at given concentration ([2]; 1 mM): 0.76
Cell survival at given concentration ([2]; 3 mM): 0.39
Cell survival at given concentration ([2]; 10 mM): 0.12
IC50 ([2]; Table 4.2): 2.3 mM
Cell survival at given concentration ([3]; 1 μM, Table 8.2): 1.00
Cell survival at given concentration ([3]; 3 μM, Table 8.2): 0.99
Cell survival at given concentration ([3]; 10 μM, Table 8.2): 1.02
Cell survival at given concentration ([3]; 32 μM, Table 8.2): 1.01
Cell survival at given concentration ([3]; 100 μM, Table 8.2): 1.04
Cell survival at given concentration ([3]; 317 μM): 0.97
Cell survival at given concentration ([3]; 1 mM): 0.94
Cell survival at given concentration ([3]; 3 mM): 0.84
Cell survival at given concentration ([3]; 10 mM): 0.69
IC50 ([3]; Table 8.2): > 10 mM

CC(O)CC(=O)O (stereo not drawn) [beta-hydroxybutyrate]
Cell survival at given concentration (A-431 skin cancer cells; 1 μM, Table 9.2): 1.01
Cell survival at given concentration (A-431 skin cancer cells; 3 μM, Table 9.2): 1.02
Cell survival at given concentration (A-431 skin cancer cells; 10 μM, Table 9.2): 1.03
Cell survival at given concentration (A-431 skin cancer cells; 32 μM, Table 9.2): 1.03
Cell survival at given concentration (A-431 skin cancer cells; 100 μM, Table 9.2): 1.03
Cell survival at given concentration (A-431 skin cancer cells; 317 μM): 1.05
Cell survival at given concentration (A-431 skin cancer cells; 1 mM): 1.05
Cell survival at given concentration (A-431 skin cancer cells; 3 mM): 1.03
Cell survival at given concentration (A-431 skin cancer cells; 10 mM): 1.01
Cell survival at given concentration (T24 bladder cancer cells; 1 μM, Table 3.2): 0.97
Cell survival at given concentration (T24 bladder cancer cells; 3 μM, Table 3.2): 1.00
Cell survival at given concentration (T24 bladder cancer cells; 10 μM, Table 3.2): 0.98
Cell survival at given concentration (T24 bladder cancer cells; 32 μM, Table 3.2): 0.95
Cell survival at given concentration (T24 bladder cancer cells; 100 μM, Table 3.2): 0.96
Cell survival at given concentration (T24 bladder cancer cells; 317 μM): 1.02
Cell survival at given concentration (T24 bladder cancer cells; 1 mM): 0.99
Cell survival at given concentration (T24 bladder cancer cells; 3 mM): 0.99
Cell survival at given concentration (T24 bladder cancer cells; 10 mM): 1.00
Cell survival at given concentration (A549 lung cancer cells; 1 μM, Table 7.2): 1.00
Cell survival at given concentration (A549 lung cancer cells; 3 μM, Table 7.2): 0.99
Cell survival at given concentration (A549 lung cancer cells; 10 μM, Table 7.2): 1.01
Cell survival at given concentration (A549 lung cancer cells; 32 μM, Table 7.2): 1.02
Cell survival at given concentration (A549 lung cancer cells; 100 μM, Table 7.2): 1.05
Cell survival at given concentration (A549 lung cancer cells; 317 μM): 1.01
Cell survival at given concentration (A549 lung cancer cells; 1 mM): 1.01
Cell survival at given concentration (A549 lung cancer cells; 3 mM): 1.01
Cell survival at given concentration (A549 lung cancer cells; 10 mM): 0.98
IC50 (A549 lung cancer cells; Table 7.2): > 10 mM
Cell survival at given concentration (AGS stomach cancer cells; 1 μM, Table 10.2): 1.01
Cell survival at given concentration (AGS stomach cancer cells; 3 μM, Table 10.2): 1.03
Cell survival at given concentration (AGS stomach cancer cells; 10 μM, Table 10.2): 1.01
Cell survival at given concentration (AGS stomach cancer cells; 32 μM, Table 10.2): 1.02
Cell survival at given concentration (AGS stomach cancer cells; 100 μM, Table 10.2): 1.04
Cell survival at given concentration (AGS stomach cancer cells; 317 μM): 1.03
Cell survival at given concentration (AGS stomach cancer cells; 1 mM): 1.04
Cell survival at given concentration (AGS stomach cancer cells; 3 mM): 1.03
Cell survival at given concentration (AGS stomach cancer cells; 10 mM): 1.00
Cell survival at given concentration (MCF7 breast cancer cells; 1 μM, Table 5.2): 1.00
Cell survival at given concentration (MCF7 breast cancer cells; 3 μM, Table 5.2): 1.00
Cell survival at given concentration (MCF7 breast cancer cells; 10 μM, Table 5.2): 1.00
Cell survival at given concentration (MCF7 breast cancer cells; 32 μM, Table 5.2): 1.01
Cell survival at given concentration (MCF7 breast cancer cells; 100 μM, Table 5.2): 1.03
Cell survival at given concentration (MCF7 breast cancer cells; 317 μM): 1.01
Cell survival at given concentration (MCF7 breast cancer cells; 1 mM): 0.97
Cell survival at given concentration (MCF7 breast cancer cells; 3 mM): 0.92
Cell survival at given concentration (MCF7 breast cancer cells; 10 mM): 0.91
Cell survival at given concentration ([1]; 1 μM, Table 6.2): 0.98
Cell survival at given concentration ([1]; 3 μM, Table 6.2): 1.00
Cell survival at given concentration ([1]; 10 μM, Table 6.2): 0.99
Cell survival at given concentration ([1]; 32 μM, Table 6.2): 0.98
Cell survival at given concentration ([1]; 100 μM, Table 6.2): 1.00
Cell survival at given concentration ([1]; 317 μM): 1.03
Cell survival at given concentration ([1]; 1 mM): 1.01
Cell survival at given concentration ([1]; 3 mM): 0.96
Cell survival at given concentration ([1]; 10 mM): 0.90
Cell survival at given concentration ([2]; 1 μM, Table 4.2): 1.01
Cell survival at given concentration ([2]; 3 μM, Table 4.2): 0.99
Cell survival at given concentration ([2]; 10 μM, Table 4.2): 0.98
Cell survival at given concentration ([2]; 32 μM, Table 4.2): 0.98
Cell survival at given concentration ([2]; 100 μM, Table 4.2): 1.02
Cell survival at given concentration ([2]; 317 μM): 0.99
Cell survival at given concentration ([2]; 1 mM): 0.99
Cell survival at given concentration ([2]; 3 mM): 0.96
Cell survival at given concentration ([2]; 10 mM): 0.91
Cell survival at given concentration ([3]; 1 μM, Table 8.2): 1.01
Cell survival at given concentration ([3]; 3 μM, Table 8.2): 1.00
Cell survival at given concentration ([3]; 10 μM, Table 8.2): 1.01
Cell survival at given concentration ([3]; 32 μM, Table 8.2): 1.03
Cell survival at given concentration ([3]; 100 μM, Table 8.2): 1.03
Cell survival at given concentration ([3]; 317 μM): 1.03
Cell survival at given concentration ([3]; 1 mM): 1.01
Cell survival at given concentration ([3]; 3 mM): 1.00
Cell survival at given concentration ([3]; 10 mM): 0.97
